# Results reported in ChEMBL document CHEMBL1124383, “Carbamyl analogues of potent nicotinic agonists: pharmacology and computer-assisted molecular modeling study” (J Med Chem, 1989).
# System: frog
# Assay: Potency with reference to carbamylcholine at the frog neuromuscular junction, expressed as reciprocal of equipotent molar ratio
# Format: functional
row,SMILES,Potency
1,C[N+]1(C)CC=C(C(N)=O)CC1,0.77
2,CC(=O)C1CC[N+](C)(C)CC1,9.1
3,C[N+]1(C)CCC(C(N)=O)CC1,0.052
4,CC(=O)C1=CC[N+](C)(C)CC1,50
5,C[N+]1(C)CCN(C(N)=O)CC1,0.15
6,CC(=O)N1CC[N+](C)(C)CC1,2.6
